The results in this text go back to the PolyMetriX glass transition set.

The compound `*/C(=N\c1ccccc1)c1ccc(-c2ccc(*)cc2)cc1` (repeat unit) had a glass transition temperature of 225.00 °C.
Take `*C#CC#Cc1cc(C(C)(C)C)cc2c3cc(C(C)(C)C)cc(*)c3n(CCCCCCCCCCCCCCCC)c12` (repeat unit): the glass transition temperature was determined as 67.00 °C.
The compound `*CC(*)C(=O)OCCCCCCOc1ccc(-c2ccc(C#N)cc2)cc1` (repeat unit) came in with a glass transition temperature of 45.00 °C.
Consider `*CC(*)C(=O)OCCCCCCOc1ccc(C(=O)Oc2ccc(OC)cc2)cc1` (repeat unit), for which the glass transition temperature is 29.50 °C.
`*CC(*)C(=O)OCCCCCCn1c2ccccc2c2ccccc21` (repeat unit) had a glass transition temperature of 48.00 °C.
`*CC(*)C(=O)OCCCCOc1ccc(-c2ccc(C#N)cc2)cc1` (repeat unit) displayed a glass transition temperature of 30.00 °C.
For `*CC(*)C(=O)OCCCOC` (repeat unit), the glass transition temperature is -66.50 °C.
On to `*CC(*)C(=O)OCCCOc1ccc(C(=O)OCCCC(F)(F)C(F)(F)C(F)(F)C(F)(F)C(F)(F)C(F)(F)F)cc1` (repeat unit), for which the glass transition temperature amounted to 17.00 °C.
As to `*CC(*)C(=O)OCCCSCC` (repeat unit), the glass transition temperature was -76.00 °C.
Take `*CC(*)C(=O)OCCN(CC)c1ccc(/N=N/c2ccc([N+](=O)[O-])cc2)cc1` (repeat unit): the glass transition temperature amounted to 102.00 °C.
Then `*CC(*)C(=O)OCCN(CC)c1ccc(/N=N/c2ccc([N+](=O)[O-])cc2Cl)cc1` (repeat unit), with 87.00 °C; and `*CC(*)C(=O)OCCOC(F)(F)C(F)F` (repeat unit), with -22.00 °C; and `*CC(*)C(=O)OCCOCC(F)(F)F` (repeat unit), with -38.00 °C.
Then `*CC(*)C(=O)OCCOc1ccc(C(=O)Oc2ccc(OC)cc2)cc1` (repeat unit), with 70.00 °C; and `*CC(*)C(=O)OCCSCC#N` (repeat unit), with -24.00 °C; and `*CC(*)C(=O)OCCSCCC#N` (repeat unit), with -50.00 °C.
`*CC(*)C(=O)OCCSCCCC#N` (repeat unit): the glass transition temperature is -58.00 °C.
`*CC(*)C(=O)OCc1ccccc1` (repeat unit) displayed a glass transition temperature of 9.2 °C.
Compound `*CC(*)C(=O)Oc1ccc(-c2ccccc2)cc1` (repeat unit) gave a glass transition temperature of 110.00 °C.
For the compound `*CC(*)C(=O)Oc1ccc(/N=N/c2ccc(OC)cc2)cc1` (repeat unit), the glass transition temperature turned out to be 140.00 °C.
Compound `*CC(*)C(=O)Oc1ccc(C#N)cc1` (repeat unit) gave a glass transition temperature of 92.00 °C.
`*CC(*)C(=O)Oc1ccc(C(=O)Oc2ccc(OC(=O)c3ccc(OCCCC)cc3)cc2)cc1` (repeat unit): the glass transition temperature came to 47.00 °C.
Then `*CC(*)C(=O)Oc1ccc(C(=O)Oc2ccc(OC(=O)c3ccc(OCCCCC)cc3)cc2)cc1` (repeat unit), with 48.00 °C; and `*CC(*)C(=O)Oc1ccc(C(=O)c2ccc(Cl)cc2)cc1` (repeat unit), with 78.00 °C.
In the case of `*CC(*)C(=O)Oc1ccc(C(C)(C)C)cc1` (repeat unit), the glass transition temperature was 71.00 °C.
`*CC(*)C(=O)Oc1ccc(OC)cc1` (repeat unit) showed a glass transition temperature of 50.50 °C.
As to `*CC(*)C(=O)Oc1cccc(C(=O)OCC)c1` (repeat unit), the glass transition temperature came out at 24.00 °C.
Then `*CC(*)C(=O)Oc1cccc(C)c1` (repeat unit), with 24.50 °C; and `*CC(*)C(=O)Oc1cccc2ccccc12` (repeat unit), with 85.00 °C; and `*CC(*)C(=O)c1ccc(Br)c(OC)c1` (repeat unit), with 44.00 °C.
As for `*CC(*)C(=O)c1ccc(CCC)cc1` (repeat unit), the glass transition temperature is 44.00 °C.
`*CC(*)C(C)=O` (repeat unit) gave a glass transition temperature of 115.00 °C.
Turning to `*CC(*)C1CCCCC1C` (repeat unit), the glass transition temperature was 186.00 °C.
Take `*CC(*)CC1CCCC1` (repeat unit): the glass transition temperature worked out at 60.00 °C.
On to `*CC(*)CCCCCCCCCCCC` (repeat unit), for which the glass transition temperature was found to be 10.00 °C.
Regarding `*CC(*)CCCCCCCCCI` (repeat unit), the glass transition temperature was -6.00 °C.
Consider `*CC(*)CCI` (repeat unit), for which the glass transition temperature is 70.00 °C.
`*CC(*)CN` (repeat unit) gave a glass transition temperature of 190.00 °C.
In turn, `*CC(*)CNc1ccc([N+](=O)[O-])cc1[N+](=O)[O-]` (repeat unit) returned a glass transition temperature of 160.00 °C.
Turning to `*CC(*)NC=O` (repeat unit), the glass transition temperature is 150.00 °C.
In turn, `*CC(*)OC(=O)C(C)(C(C)C)C(C)C` (repeat unit) gave a glass transition temperature of 120.00 °C.
Compound `*CC(*)OC(=O)C(Cl)(Cl)Cl` (repeat unit) came in with a glass transition temperature of 59.00 °C.
Compound `*CC(*)OC(=O)CC1CCCC1` (repeat unit) displayed a glass transition temperature of -3.00 °C.
As for `*CC(*)OC(=O)CCCC(=O)c1ccccc1` (repeat unit), the glass transition temperature came out at 45.00 °C.
`*CC(*)OC(=O)CCl` (repeat unit): the glass transition temperature is 20.5 °C.
For `*CC(*)OC(=O)OC([2H])([2H])[2H]` (repeat unit), the glass transition temperature worked out at 55.00 °C.
Then `*CC(*)OC(=O)OCCC(F)(F)C(F)(F)C(F)(F)C(F)(F)C(F)(F)C(F)(F)F` (repeat unit), with 37.00 °C.
`*CC(*)OC(=O)c1ccc(Br)cc1` (repeat unit) gave a glass transition temperature of 85.50 °C.
For `*CC(*)OC(=O)c1ccc(C(C)(C)C)cc1` (repeat unit), the glass transition temperature came to 121.00 °C.
`*CC(*)OC(=O)c1ccc(C)cc1` (repeat unit) gave a glass transition temperature of 73.50 °C.
Compound `*CC(*)OC(=O)c1ccc(CC)cc1` (repeat unit) gave a glass transition temperature of 57.00 °C.
`*CC(*)OC(=O)c1ccc(Cl)cc1` (repeat unit) showed a glass transition temperature of 70.2 °C.
Take `*CC(*)OC(=O)c1ccc(OC(=O)CCC)cc1` (repeat unit): the glass transition temperature is 61.00 °C.
For `*CC(*)OC(=O)c1ccc(OC(C)=O)cc1` (repeat unit) the value was 76.00 °C; for `*CC(*)OC(=O)c1cccc(OC)c1` (repeat unit), 44.00 °C.
For `*CC(*)OC(=O)c1ccccc1C` (repeat unit), the glass transition temperature came out at 42.50 °C.
Then `*CC(*)OC(=O)c1ccccc1OC` (repeat unit), with 65.00 °C; and `*CC(*)OC(=O)c1ccccc1OC(C)=O` (repeat unit), with 59.50 °C; and `*CC(*)OC(=O)c1ccncc1` (repeat unit), with 98.50 °C.
Compound `*CC(*)OC(=O)c1nn(C(C)=O)c2ccccc12` (repeat unit) displayed a glass transition temperature of 150.00 °C.
For `*CC(*)OC(F)(C(F)(F)F)C(F)(F)F` (repeat unit) the value was 65.00 °C; for `*CC(*)OCC(C)(C)CC` (repeat unit), 9.00 °C; for `*CC(*)OCC(CC)CCCC` (repeat unit), -66.00 °C.
`*CC(*)OCCCCCCCCCCCOc1ccc(C(=O)Oc2ccc(C#N)cc2)cc1` (repeat unit): the glass transition temperature stood at 37.00 °C.
Take `*CC(*)OCCCCCCCCCCCOc1ccc(C(=O)Oc2ccc(OCC)cc2)cc1` (repeat unit): the glass transition temperature worked out at 37.00 °C.
In turn, `*CC(*)OCCOc1ccc(/C=C(\C#N)C(=O)OC)cc1` (repeat unit) came in with a glass transition temperature of 47.00 °C.
For `*CC(*)O[N+](=O)[O-]` (repeat unit) the value was 37.50 °C; for `*CC(*)P(=O)(c1ccccc1)c1ccccc1` (repeat unit), 127.50 °C.
In turn, `*CC(*)S(=O)(=O)c1ccccc1` (repeat unit) displayed a glass transition temperature of 128.00 °C.
For `*CC(*)[Si](C)(C)C` (repeat unit), the glass transition temperature stood at 137.00 °C.
Compound `*CC(*)c1c(F)c(F)c(C(F)(F)F)c(F)c1F` (repeat unit) returned a glass transition temperature of 112.00 °C.
`*CC(*)c1c(F)c(F)c(OCC(F)(F)C(F)(F)C(F)(F)C(F)(F)C(F)(F)C(F)(F)C(F)(F)F)c(F)c1F` (repeat unit) yielded a glass transition temperature of 21.00 °C.
`*CC(*)c1c(F)c(F)c(OCC(F)(F)C(F)(F)F)c(F)c1F` (repeat unit) gave a glass transition temperature of 61.00 °C.
As for `*CC(*)c1c([2H])c([2H])c([2H])c([2H])c1[2H]` (repeat unit), the glass transition temperature came out at 100.00 °C.
`*CC(*)c1cc(-c2ccc(C(=O)OC3CC(C)CCC3C(C)C)cc2)ccc1-c1ccc(C(=O)OC2CC(C)CCC2C(C)C)cc1` (repeat unit) registered a glass transition temperature of 217.50 °C.
Compound `*CC(*)c1cc(Br)ccc1OCCC` (repeat unit) showed a glass transition temperature of 54.00 °C.
Then `*CC(*)c1cc(Br)ccc1OCCC(C)C` (repeat unit), with 37.00 °C; and `*CC(*)c1cc(C(=O)OCC)ccc1-c1ccc(OCCCCCCCC)cc1` (repeat unit), with 95.00 °C; and `*CCCCCCN(CC(F)(F)C(F)(F)F)C(=O)C(F)(F)C(F)(F)C(F)(F)C(=O)N(*)CC(F)(F)C(F)(F)F` (repeat unit), with 174.00 °C.
For `*COc1ccc(C(=C(Cl)Cl)c2ccc(O*)cc2)cc1` (repeat unit) the value was 108.00 °C; for `*O[Si](C)(C)C#C[Si](C)(C)C#C[Si](C)(C)C#C[Si](C)(C)C#C[Si](*)(C)C` (repeat unit), -23.00 °C.
For `*c1ccc(C#Cc2cc(OCCCCCCCC)c(C#Cc3ccc(-c4nnc(*)o4)cc3)cc2OCCCCCCCC)cc1` (repeat unit) the value was 130.00 °C.
